Measured values published in paper PMC8091115, “Redundancy in Aromatic O-Demethylation and Ring-Opening Reactions in Novosphingobium aromaticivorans and Their Impact in the Metabolism of Plant-Derived Phenolics” (Applied and Environmental Microbiology, 2021).

Tests used:
LigM = target: T1, LigM (Novosphingobium aromaticivorans, UniProt Q2G4C6); experiment: HPLC-MS substrate depletion and product formation; format: biochemical; conditions: tetrahydrofolate as methyl acceptor, anaerobic, 30 C, phosphate buffer
T1 construct: gene Saro_2861; full length, N-terminal His8-TEV tag cleaved, from E. coli B834
T1 sequence (Q2G4C6 entry or part of it): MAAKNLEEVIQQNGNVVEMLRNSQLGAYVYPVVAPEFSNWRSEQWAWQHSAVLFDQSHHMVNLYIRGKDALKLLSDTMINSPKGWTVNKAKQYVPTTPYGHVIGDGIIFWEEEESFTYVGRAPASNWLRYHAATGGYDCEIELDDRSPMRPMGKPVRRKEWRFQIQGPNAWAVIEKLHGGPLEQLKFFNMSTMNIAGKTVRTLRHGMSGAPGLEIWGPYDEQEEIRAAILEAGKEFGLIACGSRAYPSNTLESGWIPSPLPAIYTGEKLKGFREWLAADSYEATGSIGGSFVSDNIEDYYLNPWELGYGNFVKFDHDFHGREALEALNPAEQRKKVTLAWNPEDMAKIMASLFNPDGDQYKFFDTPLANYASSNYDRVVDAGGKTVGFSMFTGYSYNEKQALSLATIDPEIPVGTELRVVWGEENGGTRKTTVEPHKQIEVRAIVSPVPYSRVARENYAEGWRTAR

DesA = target: T2, DesA (Novosphingobium aromaticivorans, UniProt Q2G5N3); experiment: HPLC-MS substrate depletion and product formation; format: biochemical; conditions: tetrahydrofolate as methyl acceptor, anaerobic, 30 C, phosphate buffer
T2 construct: gene Saro_2404; full length, N-terminal His8-TEV tag cleaved, from E. coli B834; b91 prints Saro_2402 (probable misprint, Saro_2404 everywhere else)
T2 sequence (Q2G5N3 entry or part of it): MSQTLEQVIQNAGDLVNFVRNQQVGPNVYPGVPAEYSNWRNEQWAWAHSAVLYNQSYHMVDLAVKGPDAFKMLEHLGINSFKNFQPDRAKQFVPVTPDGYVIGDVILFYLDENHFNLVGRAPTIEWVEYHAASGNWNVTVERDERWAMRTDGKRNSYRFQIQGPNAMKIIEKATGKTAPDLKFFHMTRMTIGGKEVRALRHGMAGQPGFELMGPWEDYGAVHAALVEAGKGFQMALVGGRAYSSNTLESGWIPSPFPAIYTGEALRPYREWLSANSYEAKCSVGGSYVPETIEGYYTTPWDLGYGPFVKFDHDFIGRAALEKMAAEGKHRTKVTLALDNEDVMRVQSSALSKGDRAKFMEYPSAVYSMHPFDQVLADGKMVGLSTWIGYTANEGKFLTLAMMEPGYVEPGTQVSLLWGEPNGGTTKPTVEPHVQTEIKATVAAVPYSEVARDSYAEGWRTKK

SMILES | HPLC-MS substrate depletion and product formation (LigM) | HPLC-MS substrate depletion and product formation (DesA)
COc1cc(C(=O)O)cc(O)c1O [3-MGA] | LigM protein of N. aromaticivorans was able to convert 3-MGA into GA | 
COc1cc(C(=O)O)ccc1O [vanillic acid] | able to convert 3-MGA into GA and vanillic acid into PCA at comparable rates | demethylated both syringic acid and, somewhat more slowly, vanillic acid
